Measured values taken from PMC5447021, “TNF Lectin-Like Domain Restores Epithelial Sodium Channel Function in Frameshift Mutants Associated with Pseudohypoaldosteronism Type 1B” (Frontiers in Immunology, 2017).
Entries after “also recorded” stand apart in the source; their conditions may differ.

Assays:
[1] = test system: α-ENaC frameshift PHA1B mutants; assay: Whole-cell patch clamp, all α-ENaC PHA1B frameshift mutants + WT βγ; type: cell-based, human; conditions: for Restoration of current by solnatide (words): all 10 frameshift mutants, 200 nM solnatide (Figure 4B), n = 3–11
Protocol: Point mutations of α-, β-, γ- and δ-hENaC and PHA1B frameshift mutations of α-hENaC were prepared with the QuikChange Lightning Site-Directed Mutagenesis Kit (Agilent Technologies, CA, USA). Mutagenic primers were designed individually with the Primer Design Program provided on the producer’s website or for the frameshift mutations the same base changes as reported in patients (see Table 2) were performed. Primers were ordered from Sigma-Aldrich, Vienna, Austria.
HEK-293 cells were transfected 1 day after cell seeding using X-tremeGENE HP DNA transfection reagent (Roche Diagnostics, Mannheim, Germany) according to the manufacturer’s protocol. A set of WT or mutant αβγ- or δβγ-hENaC, or α-, β-, γ-, or δ-hENaC alone was used, and the ratio of DNA to transfection reagent was 1:3. The expression was highest 48–72 h after transfection.
Electrophysiological experiments were performed as described in detail by Shabbir et al. ([16]). […] Currents were recorded with the patch clamp method in the whole-cell mode. The chamber contained 1 ml of the bath solution of the following composition (in mM): 145 NaCl, 2.7 KCl, 1.8 CaCl2, 2 MgCl2, 5.5 glucose, and 10 HEPES, adjusted to pH 7.4 with 1 M NaOH solution. Micropipettes were pulled from thin-walled borosilicate glass capillaries (Harvard Apparatus, Holliston, MA, USA) with a DMZ Zeitz Puller to obtain electrode resistances ranging from 2 to 5 MΩ. The pipette solution contained (in millimolars): 135 potassium methane sulfonate, 10 KCl, 6 NaCl, 1 Mg2ATP, 2 Na3ATP, 10 HEPES, and 0.5 EGTA, adjusted to pH 7.2 with 1 M KOH solution. Chemicals for pipette and bathing solutions were supplied by Sigma-Aldrich (Vienna, Austria). Electrophysiological measurements were carried out with an Axopatch 200B patch clamp amplifier (Axon Instruments, CA, USA). Capacity transients were canceled, and series resistance was compensated. Whole-cell currents were filtered at 5 kHz and sampled at 10 kHz. Data acquisition and storage were processed directly to a PC equipped with pCLAMP 10.2 software (Axon Instruments, CA, USA). […]

α-hENaC = target: T1, α-hENaC (Homo sapiens, UniProt P37088); parameters: method as in PMID 24077967; conditions: α-hENaC alone, control current 55.3 ± 5.5 pA, mean ± S.E.; cited from earlier work
T1 construct: expressed in transfected cells; host or cells: HEK-293
T1 sequence (P37088 1-669): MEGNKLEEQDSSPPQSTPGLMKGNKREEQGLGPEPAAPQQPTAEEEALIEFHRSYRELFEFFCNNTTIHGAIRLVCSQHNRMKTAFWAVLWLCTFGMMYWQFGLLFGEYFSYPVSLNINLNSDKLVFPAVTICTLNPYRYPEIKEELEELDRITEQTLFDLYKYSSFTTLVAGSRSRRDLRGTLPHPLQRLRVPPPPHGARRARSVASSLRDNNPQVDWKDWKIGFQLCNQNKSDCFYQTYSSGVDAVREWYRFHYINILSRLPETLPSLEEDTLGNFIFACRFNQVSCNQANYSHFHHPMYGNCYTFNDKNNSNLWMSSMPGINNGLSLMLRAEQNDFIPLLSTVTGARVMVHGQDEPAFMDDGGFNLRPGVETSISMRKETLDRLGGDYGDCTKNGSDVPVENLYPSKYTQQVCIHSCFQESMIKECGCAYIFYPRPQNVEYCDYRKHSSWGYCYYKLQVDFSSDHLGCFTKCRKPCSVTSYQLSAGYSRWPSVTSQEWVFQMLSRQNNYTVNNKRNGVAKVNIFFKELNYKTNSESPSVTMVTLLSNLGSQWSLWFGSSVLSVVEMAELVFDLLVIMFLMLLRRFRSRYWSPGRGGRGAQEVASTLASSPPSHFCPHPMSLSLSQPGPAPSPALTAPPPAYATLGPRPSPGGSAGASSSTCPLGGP

Q: Which “Restoration of current by solnatide (words)” value [1] does the source give for `C[C@@H]1NC(=O)CNC(=O)[C@H](CCC(=O)O)NC(=O)[C@@H]2CCCN2C(=O)[C@H]([C@@H](C)O)NC(=O)[C@H](CCC(=O)O)NC(=O)[C@H](CCCNC(=N)N)NC(=O)[C@H](CCC(N)=O)NC(=O)CNC(=O)[C@@H](N)CSSC[C@@H](C(=O)O)NC(=O)[C@H](Cc2ccc(O)cc2)NC(=O)[C@H](Cc2c[nH]c3ccccc23)NC(=O)[C@@H]2CCCN2C(=O)[C@H](CCCCN)NC(=O)[C@H](C)NC(=O)[C@H](CCC(=O)O)NC1=O` [solnatide, L-cysteine, L-cysteinylglycyl-L-glutaminyl-L-arginyl-L-α-glutamyl-L-threonyl-L-prolyl-L-α-glutamylglycyl-L-alanyl-L-α-glutamyl-L-alanyl-L-lysyl-L-prolyl-L-tryptophyl-L-tyrosyl-, cyclic (1→17)-disulfide] here?
A: up to or even higher than WT control current in absence of solnatide; also recorded: restored the amiloride-sensitive current in all these frameshift mutants to WT or higher levels

Q: And the “Restoration of current by solnatide (words)” value ([1]; listed as Solnatide)?
A: restored function in α-ENaC frameshift mutants to current density levels of wild type ENaC or higher

Q: What about the “Concentration at which maximum current activation was reached” value ([1]; solnatide, frameshift mutants, HEK-293) of the same compound?
A: 200 nM

Q: What about the “Maximal induced current, solnatide” value (α-hENaC) of the same compound?
A: 11.3 ± 6.2 pA
